# From US9969749B2, “Inhibitors of IRAK4 activity” (MERCK SHARP & DOHME CORP., priority 2014, dated 2018)
# Molecular target: IRAK4 (Homo sapiens (Human), UniProt Q9NWZ3)
# Assay: IRAK4 Kinase Assay (IMAP fluorescence polarization)
# Format: biochemical
# Settings: 0.5 nM GST tagged IRAK4, 100 μM ATP, 100 nM fluorescent peptide substrate RP7030, 30 minutes at 25° C.
# How it was run: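 GST-tagged IRAK4 (0.5 nM) phosphorylates 100 nM fluorescent peptide with 100 μM ATP in 10 mM Tris pH 7.2, 1 mM MgCl2, 1 mM DTT, 0.01% Tween 20 for 30 min at 25 °C. Phosphorylation read as IMAP nanoparticle-binding fluorescence polarization after stop reagent.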
# Sequence of IRAK4 (Q9NWZ3 whole entry): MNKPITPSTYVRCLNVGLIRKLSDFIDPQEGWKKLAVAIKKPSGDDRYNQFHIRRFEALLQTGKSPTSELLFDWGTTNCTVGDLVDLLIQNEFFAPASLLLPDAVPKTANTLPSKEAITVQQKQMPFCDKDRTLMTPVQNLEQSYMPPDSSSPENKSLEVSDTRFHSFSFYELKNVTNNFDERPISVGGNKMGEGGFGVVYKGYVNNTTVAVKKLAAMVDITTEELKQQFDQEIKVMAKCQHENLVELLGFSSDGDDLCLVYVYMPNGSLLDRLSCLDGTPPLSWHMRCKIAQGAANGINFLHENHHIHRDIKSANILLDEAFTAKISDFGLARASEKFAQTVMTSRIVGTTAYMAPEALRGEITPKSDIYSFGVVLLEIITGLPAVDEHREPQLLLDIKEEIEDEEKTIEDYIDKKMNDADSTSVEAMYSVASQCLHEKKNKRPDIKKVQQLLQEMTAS
row,SMILES,IC50
1,"Fc1c[nH]nc1-c1ccc2ncnc(N[C@H]3CC[C@H](N4CCOCC4)CC3)c2c1 [Example 2-9, 6-(4-fluoro-1H-pyrazol-3-yl)-N-(trans-4-morpholin-4-ylcyclohexyl)quinazolin-4-amine]",12 nM
2,"N#Cc1n[nH]cc1-c1ccc2ncnc(N[C@H]3CC[C@H](N4CCOCC4)CC3)c2c1 [Example 2-10, 4-{4-[(trans-4-morpholin-4-ylcyclohexyl)amino]quinazolin-6-yl}-1H-pyrazole-3-carbonitrile]",8 nM
3,"N#Cc1nn[nH]c1-c1ccc2ncnc(N[C@H]3CC[C@H](N4CCOCC4)CC3)c2c1 [Example 2-11, 5-{4-[(trans-4-morpholin-4-ylcyclohexyl)amino]quinazolin-6-yl}-1H-1,2,3-triazole-4-carbonitrile]",62 nM
4,"Cn1cc(-c2ccc3ncnc(N[C@H]4CC[C@H](N5CCOCC5)CC4)c3c2)c(CO)n1 [Example 2-12, (1-methyl-4-{4-[(trans-4-morpholin-4-ylcyclohexyl)amino]quinazolin-6-yl}-1H-pyrazol-3-yl)methanol]",261 nM
5,"Cn1nccc1-c1ccc2ncnc(N[C@H]3CC[C@H](N4CCOCC4)CC3)c2c1 [Example 2-13, 6-(1-methyl-1H-pyrazol-5-yl)-N-(trans-4-morpholin-4-ylcyclohexyl)quinazolin-4-amine]",324 nM
6,"FC(F)(F)c1n[nH]cc1-c1ccc2ncnc(N[C@H]3CC[C@H](N4CCOCC4)CC3)c2c1 [Example 2-14, N-(trans-4-morpholin-4-ylcyclohexyl)-6-[3-(trifluoromethyl)-1H-pyrazol-4-yl]quinazolin-4-amine]",80 nM
7,"Cn1nncc1-c1ccc2ncnc(N[C@H]3CC[C@H](N4CCOCC4)CC3)c2c1 [Example 2-15, 6-(1-methyl-1H-1,2,3-triazol-5-yl)-N-(trans-4-morpholin-4-ylcyclohexyl)quinazolin-4-amine]",152 nM
8,"c1nc(N[C@H]2CC[C@H](N3CCOCC3)CC2)c2cc(-c3cnc4c(c3)NCC4)ccc2n1 [Example 2-16, 6-(2,3-dihydro-1H-pyrrolo[3,2-b]pyridin-6-yl)-N-[trans-4-(morpholin-4-yl)cyclohexyl]quinazolin-4-amine]",48 nM
9,"N#Cc1sccc1-c1ccc2ncnc(N[C@H]3CC[C@H](N4CCOCC4)CC3)c2c1 [Example 2-17, 3-(4-{[trans-4-(morpholin-4-yl)cyclohexyl]amino}quinazolin-6-yl)thiophene-2-carbonitrile]",41 nM
10,"N#Cc1cscc1-c1ccc2ncnc(N[C@H]3CC[C@H](N4CCOCC4)CC3)c2c1 [Example 2-18, 4-(4-{[trans-4-(morpholin-4-yl)cyclohexyl]amino}quinazolin-6-yl)thiophene-3-carbonitrile]",52 nM
11,"Cc1nc[nH]c1-c1ccc2ncnc(N[C@H]3CC[C@H](N4CCOCC4)CC3)c2c1 [Example 2-19, 6-(4-methyl-1H-imidazol-5-yl)-N-[trans-4-(morpholin-4-yl)cyclohexyl]quinazolin-4-amine]",184 nM
12,"Cc1n[nH]cc1-c1ccc2ncnc(N[C@H]3CC[C@H](N4CCOCC4)CC3)c2c1 [Example 2-20, 6-(3-methyl-1H-pyrazol-4-yl)-N-[trans-4-(morpholin-4-yl)cyclohexyl]quinazolin-4-amine]",22 nM
13,"Cc1c(-c2ccc3ncnc(N[C@H]4CC[C@H](N5CCOCC5)CC4)c3c2)cnn1C [Example 2-21, 6-(1,5-dimethyl-1H-pyrazol-4-yl)-N-[trans-4-(morpholin-4-yl)cyclohexyl]quinazolin-4-amine]",126 nM
14,"Cc1c[nH]c(-c2ccc3ncnc(N[C@H]4CC[C@H](N5CCOCC5)CC4)c3c2)n1 [Example 2-22, 6-(4-methyl-1H-imidazol-2-yl)-N-[trans-4-(morpholin-4-yl)cyclohexyl]quinazolin-4-amine]",492 nM
15,"Cc1cn(C)c(-c2ccc3ncnc(N[C@H]4CC[C@H](N5CCOCC5)CC4)c3c2)n1 [Example 2-23, 6-(1,4-dimethyl-1H-imidazol-2-yl)-N-[trans-4-(morpholin-4-yl)cyclohexyl]quinazolin-4-amine]",1190 nM
16,"Cc1n[nH]c(C)c1-c1ccc2ncnc(N[C@H]3CC[C@H](N4CCOCC4)CC3)c2c1 [Example 2-24, 6-(3,5-dimethyl-1H-pyrazol-4-yl)-N-[trans-4-(morpholin-4-yl)cyclohexyl]quinazolin-4-amine]",104 nM
17,"Cc1nc(-c2ccc3ncnc(N[C@H]4CC[C@H](N5CCOCC5)CC4)c3c2)c[nH]1 [Example 2-25, 6-(2-methyl-1H-imidazol-4-yl)-N-[trans-4-(morpholin-4-yl)cyclohexyl]quinazolin-4-amine]",88 nM
18,"Cn1ccnc1-c1ccc2ncnc(N[C@H]3CC[C@H](N4CCOCC4)CC3)c2c1 [Example 2-26, 6-(1-methyl-1H-imidazol-2-yl)-N-[trans-4-(morpholin-4-yl)cyclohexyl]quinazolin-4-amine]",562 nM
19,"Cn1ncnc1-c1ccc2ncnc(N[C@H]3CC[C@H](N4CCOCC4)CC3)c2c1 [Example 2-27, 6-(1-methyl-1H-1,2,4-triazol-5-yl)-N-[trans-4-(morpholin-4-yl)cyclohexyl]quinazolin-4-amine]",159 nM

row,SMILES,IC50
1,"c1nc(N[C@H]2CC[C@H](N3CCOCC3)CC2)c2cc(-c3cnoc3)ccc2n1 [Example 2-28, 6-(isoxazol-4-yl)-N-[trans-4-(morpholin-4-yl)cyclohexyl]quinazolin-4-amine]",2 nM
2,"COc1cc(-c2ccc3ncnc(N[C@H]4CC[C@H](N5CCOCC5)CC4)c3c2)cnc1F [Example 2-29, 6-(6-fluoro-5-methoxypyridin-3-yl)-N-[trans-4-(morpholin-4-yl)cyclohexyl]quinazolin-4-amine]",20 nM
3,"Oc1cc(-c2ccc3ncnc(N[C@H]4CC[C@H](N5CCOCC5)CC4)c3c2)cnc1F [Example 2-30, 2-fluoro-5-(4-{[trans-4-(morpholin-4-yl)cyclohexyl]amino}quinazolin-6-yl)pyridin-3-ol]",< 0.5 nM
4,"CN(C)c1cc(-c2ccc3ncnc(N[C@H]4CC[C@H](N5CCOCC5)CC4)c3c2)cnc1F [Example 2-31, 6-[5-(dimethylamino)-6-fluoropyridin-3-yl]-N-[trans-4-(morpholin-4-yl)cyclohexyl]quinazolin-4-amine]",73 nM
5,"CNc1cc(-c2ccc3ncnc(N[C@H]4CC[C@H](N5CCOCC5)CC4)c3c2)cnc1F [Example 2-32, 6-[6-fluoro-5-(methylamino)pyridin-3-yl]-N-[trans-4-(morpholin-4-yl)cyclohexyl]quinazolin-4-amine]",1 nM
6,"Fc1cc(-c2ccc3ncnc(N[C@H]4CC[C@H](N5CCOCC5)CC4)c3c2)cnc1Cl [Example 2-33, 6-(6-chloro-5-fluoropyridin-3-yl)-N-[trans-4-(morpholin-4-yl)cyclohexyl]quinazolin-4-amine]",28 nM
7,"Fc1cc(-c2ccc3ncnc(N[C@H]4CC[C@H](N5CCOCC5)CC4)c3c2)cnc1F [Example 2-34, 6-(5,6-difluoropyridin-3-yl)-N-[trans-4-(morpholin-4-yl)cyclohexyl]quinazolin-4-amine]",13 nM
8,"FC(F)c1cncc(-c2ccc3ncnc(N[C@H]4CC[C@H](N5CCOCC5)CC4)c3c2)c1 [Example 2-35, 6-[5-(difluoromethyl)pyridin-3-yl]-N-[trans-4-(morpholin-4-yl)cyclohexyl]quinazolin-4-amine]",37 nM
9,"Nc1cc(-c2ccc3ncnc(N[C@H]4CC[C@H](N5CCOCC5)CC4)c3c2)cnc1Cl [Example 2-36, 6-(5-amino-6-chloropyridin-3-yl)-N-[trans-4-(morpholin-4-yl)cyclohexyl]quinazolin-4-amine]",10 nM
10,"CN(C)[C@H]1CC[C@H](Nc2ncnc3ccc(-c4cncc(O)c4)cc23)CC1 [Example 3-1, 5-(4-(((Trans)-4-(dimethylamino)cyclohexyl)amino)quinazolin-6-yl)pyridin-3-ol]",1 nM
11,"CN(C)C(=O)c1cccc(-c2ccc3ncnc(N[C@H]4CC[C@H](N5CCOCC5)CC4)c3c2)n1 [Example 4-1, N,N-Dimethyl-6-(4-(((trans)-4-morpholinocyclohexyl)amino)quinazolin-6-yl)picolinamide]",32 nM
12,"Oc1cc(-c2ccc3ncnc(N[C@H]4CC[C@H](N5CCC(F)(F)CC5)CC4)c3c2)cnc1F [Example 5-1, 5-(4-{[Trans-4-(4,4-difluoropiperidin-1-yl)cyclohexyl]amino}quinazolin-6-yl)-2-fluoropyridin-3-ol]",< 0.5 nM
13,"COC1CN([C@H]2CC[C@H](Nc3ncnc4ccc(-c5cncc(O)c5)cc34)CC2)C1 [Example 5-2, 5-(4-{[trans-4-(3-methoxyazetidin-1-yl)cyclohexyl]amino}quinazolin-6-yl)pyridin-3-ol]",1 nM
14,"CN(C1CC1)[C@H]1CC[C@H](Nc2ncnc3ccc(-c4cncc(O)c4)cc23)CC1 [Example 5-3, 5-[4-({trans-4-[cyclopropyl(methyl)amino]cyclohexyl}amino)quinazolin-6-yl]pyridin-3-ol]",1 nM
15,"COCCN[C@H]1CC[C@H](Nc2ncnc3ccc(-c4cncc(O)c4)cc23)CC1 [Example 5-4, 5-[4-({trans-4-[(2-methoxyethyl)amino]cyclohexyl}amino)quinazolin-6-yl]pyridin-3-ol]",< 0.5 nM
16,"CN1CCN([C@H]2CC[C@H](Nc3ncnc4ccc(-c5cncc(O)c5)cc34)CC2)CC1 [Example 5-5, 5-(4-{[trans-4-(4-methylpiperazin-1-yl)cyclohexyl]amino}quinazolin-6-yl)pyridin-3-ol]",1 nM
17,"C[C@@H]1CN([C@H]2CC[C@H](Nc3ncnc4ccc(-c5cncc(O)c5)cc34)CC2)C[C@H](C)O1 [Example 5-6, 5-[4-({trans-4-[(2R,6S)-2,6-dimethylmorpholin-4-yl]cyclohexyl}amino)quinazolin-6-yl]pyridin-3-ol]",< 0.5 nM
18,"CNc1cncc(-c2ccc3ncnc(N[C@H]4CC[C@H](N5CCN(S(C)(=O)=O)CC5)CC4)c3c2)c1 [Example 5-7, 6-[5-(methylamino)pyridin-3-yl]-N-{trans-4-[4-(methylsulfonyl)piperazin-1-yl]cyclohexyl}quinazolin-4-amine]",8 nM
